Reference: patent publication US20070009455A1 (priority 2003, published 2007)
In brackets after ≈: the same amount, converted by molar mass.

Experiments:
Human skin melanocytes = test: Whitening activity test: melanin production in skin melanocytes; type: cell-based; conditions: for Melanin production inhibitory activity (%): concentration of each test sample: 0.02%
Method: The whitening activity test based on […] of skin melanocytes was performed as the following method: • 1. Human skin melanocytes in MGM (Melanocyte Growth Media, Clonetics) media were incubated at a 5% CO2 incubator at 37° C. • 2. A predetermined number of cells (2×10^6) were cultured in75T culture flasks. When cell confluence was identified, test samples of a predetermined concentration were loaded in the cell cultures and incubated for 2-3 days. • 3. The cultures were removed, washed with phosphate buffered saline (PBS), and treated with trypsin solution, to harvest cells. • 4. The harvested cells were centrifuged to obtain cell pellets.
The colors of the cell pellets were observed. The cell pellets were dissolved in 1N NaOH and the absorbance was measured at 475 nm. • 5. The concentration of melanin was calculated by using absorbance values obtained from melanin standard and then converted to the concentration of melanin/the total protein concentration of melanocytes. […]=[(A−B)/A]×100
A: concentration of melain/concentration of protein in control
(control: melanocytes normally grown in a culture medium containing no test samples)
B: concentration of melain/concentration of protein in each test sample
To evaluate whitening activity, inhibitory activity of the compositions of Examples 7 and Comparative Examples 6-8 against melanin production in melanocytes of healthy persons were measured and the results are summarized in Table 13 below.

tyrosinase = test: Tyrosinase inhibitory activity test; type: biochemical
Method: Tyrosine used as a substrate in main processes of melanin biosynthesis, mushroom tyrosinase, or tyrosinase fragments separated from melanocytes was added to test samples and incubated for a predetermined time. The absorbance of dopachrome that was a reaction product was measured at an absorption wavelength to evaluate the whitening effects of the test samples. Tyrosinase inhibitory activity (%)=100−((ODexp−ODcon)/ODstd×100)
ODexp: Absorbance of test sample containing tyrosinase
ODcon: Absorbance of test sample containing no tyrosinase
ODstd: Absorbance of standard sample containing tyrosinase

[1] = Free radical scavenging activity test (DPPH)
Method: When methanol solutions of test samples were converted to clear solutions due to scavenging of relatively stable deep blue-colored DPPH(1,1-diphenyl-2-hydrazyl) radicals, the degree of reduction of the absorbance of the methanol solutions was measured at 516 nm. Free radical scavenging activity (%)=100−( (ODexp−ODcon)/ODstd×100)
ODexp: Absorbance of test sample containing DPPH
ODcon: Absorbance of test sample containing no DPPH
ODstd: Absorbance of standard sample containing DPPH

SMILES | Melanin production inhibitory activity (%) (Human skin melanocytes) | Tyrosinase inhibitory activity (in words) (tyrosinase) | IC50: 50% tyrosinase activity inhibition concentration (tyrosinase) [µg/mL] | Inhibitory activity of melanin production (in words) (Human skin melanocytes; 0.02%) | Free radical scavenging (in words) [1]
OC[C@H]1O[C@@H](Oc2ccc(O)cc2)[C@H](O)[C@@H](O)[C@@H]1O [Albutin] | 2.00 |  |  |  | 
O=c1cc(CO)occ1O [Cojic acid] | 22.62 | excellent tyrosinase inhibitory activity |  |  | 
Oc1ccc(/C=C/c2cc(O)cc(O)c2)cc1 [Resveratrol] | 53.17 | excellent tyrosinase inhibitory activity | 2 (≈ 8.76 µM) | excellent inhibitory activity of melanin production | 
O=C1O[C@H]([C@@H](O)CO)C(O)=C1O [Vitamin C] | 19.72 |  |  |  | effective free radical scavengers
